These results are taken from ChEMBL document CHEMBL3507680, “University of Dundee, Gates Library screen for HepG2 cell viability”.

The series can be described thus: Human HepG2 cell viability assay in 384 well format. More on the design: dose 125 nL, time 70.5 hour; cytotoxicity at 70.5 h: concentration not given beside the values. Format: toxicity, cell-based. Conditions: HepG2 cells, read-out: Inhibition.

On to `CC(C)NC(=O)N1CCC2(COCc3cnc(-c4ccccc4)nc32)C1` (centres undefined), for which the cytotoxicity at 70.5 h was determined as 9.3%.

Consider `CNC(=O)N1CCc2cc(C(=O)NCC3CC3)c(NC(C)C)nc2CC1`, for which the cytotoxicity at 70.5 h was -7.34%.

For the compound `O=C(C1CCC1)N1CCC2(COCc3cnc(-c4cccnc4)nc32)C1` (centres undefined), the cytotoxicity at 70.5 h is -3.5%.

On to `COCC(=O)N1CCC2(COCc3cnc(-c4ccccc4)nc32)C1` (centres undefined), for which the cytotoxicity at 70.5 h was -3.58%.

`CCS(=O)(=O)N1CCc2onc(CNc3ncccn3)c2C1`: the cytotoxicity at 70.5 h is -8.6%.

For `O=C(CC1CC1)N1CCC2(COCc3cnc(-c4ccccc4)nc32)C1` (centres undefined), the cytotoxicity at 70.5 h was -8.52%.

For the compound `CCCNC(=O)c1nc2c(o1)CN(C(=O)CN(C)C)C2`, the cytotoxicity at 70.5 h is -8.52%.

For `Cc1cc(C(=O)N2C[C@@H]3COC[C@]3(c3nnc(C(C)C)o3)C2)on1`, the cytotoxicity at 70.5 h was -9.37%.

As for `CCN(C)c1ncnc2c1CCN(C(=O)c1ccc(C)o1)CC2`, the cytotoxicity at 70.5 h was -11.3%.

As to `Cc1nc([C@H]2C[C@H]3CN(C(=O)c4cc(C)c(C)s4)CC[C@@H]3O2)no1`, the cytotoxicity at 70.5 h is -12.1%.

For `COCc1cncc2c1CCN(C(=O)c1ccsc1)C2`, the cytotoxicity at 70.5 h stood at 9.92%.

On to `CCn1ncc2c1C(COC)CN(S(=O)(=O)C1CC1)C2` (centres undefined), for which the cytotoxicity at 70.5 h is -8.31%.

As to `CN(C)c1ncc2c(n1)C1(CCN(Cc3cccnc3)C1)COC2` (centres undefined), the cytotoxicity at 70.5 h stood at 4.89%.

With `Cc1noc(C)c1CN1CC2(CCN(C(=O)c3cc[nH]n3)C2)CC1=O` (centres undefined), the cytotoxicity at 70.5 h was -6.88%.

In the case of `O=C1NC2(CCN(C(=O)c3ccnnc3)CC2)CC1c1ccccc1` (centres undefined), the cytotoxicity at 70.5 h came out at 22.9%.

On to `Cc1ccc(Cn2cc(Br)c(NS(C)(=O)=O)n2)cc1`, for which the cytotoxicity at 70.5 h is -5.3%.

As for `Cc1cccc(Cn2cc(Br)c(NS(C)(=O)=O)n2)c1`, the cytotoxicity at 70.5 h was -6.39%.

Turning to `CCn1cc(CNC(=O)CC(C)C)cn1`, the cytotoxicity at 70.5 h turned out to be 3.41%.

Take `COc1cccc(NC(=O)NCc2cnn(C)c2)c1`: the cytotoxicity at 70.5 h is -7.74%.

In the case of `CCOc1ccc(C(=O)Nc2ccn(CC)n2)cc1`, the cytotoxicity at 70.5 h was -1.03%.

`O=C(Cn1nc(C(F)(F)F)c(Br)c1C1CC1)N1CCOCC1`: the cytotoxicity at 70.5 h was -5.88%.

With `Cc1nn(CCC(=O)NC2CCS(=O)(=O)C2)c(C)c1Br` (centres undefined), the cytotoxicity at 70.5 h is -0.845%.

As to `O=C(NCCCN1CCOCC1)c1ccn(COc2ccccc2)n1`, the cytotoxicity at 70.5 h is -7.55%.

As to `O=C(NCCN1CCOCC1)c1ccn(COc2ccc(F)cc2)n1`, the cytotoxicity at 70.5 h is -5.85%.

Consider `O=C(NCCCN1CCOCC1)c1ccn(COc2ccc(F)cc2)n1`, for which the cytotoxicity at 70.5 h was -6.88%.

Turning to `CC(C(=O)Nc1ccc(Cl)cn1)n1ccc(C(F)(F)F)n1` (centres undefined), the cytotoxicity at 70.5 h is 1.33%.

Regarding `CC(C(=O)Nc1ccon1)n1ccc(C(F)(F)F)n1` (centres undefined), the cytotoxicity at 70.5 h worked out at 15.3%.

For `Cc1csc(NC(=O)C(C)Oc2ccc3c(c2)OCO3)n1` (centres undefined), the cytotoxicity at 70.5 h is -9.39%.

Turning to `Cc1nn(Cc2ccc(C(=O)NCCCN3CCOCC3)o2)c(C)c1Cl`, the cytotoxicity at 70.5 h came to 24.8%.

For `CCC/N=c1/c(NC(=O)NCCOC)c(O)oc2ccccc12`, the cytotoxicity at 70.5 h turned out to be 25.8%.

As for `Cc1nn(C)cc1CN(C)C(=O)c1ccccn1`, the cytotoxicity at 70.5 h was 1.81%.

For the compound `Cc1nn(C)cc1CN(C)C(=O)c1ccncc1`, the cytotoxicity at 70.5 h amounted to 2.69%.

Take `CCn1cc(Cl)c(C(=O)NCCCO)n1`: the cytotoxicity at 70.5 h is -3.76%.

Regarding `COc1ccc(N2CCN(C(=O)C(C)n3cc(Br)cn3)CC2)cc1` (centres undefined), the cytotoxicity at 70.5 h was -1.02%.

Consider `CC1CCN(C(=O)C(C)n2cc(Br)cn2)CC1` (centres undefined), for which the cytotoxicity at 70.5 h is -3.34%.

Turning to `Cc1ccc(C(=O)Nc2nn[nH]n2)s1`, the cytotoxicity at 70.5 h is -0.43%.

For `O=C(Nc1cnn(COc2ccc(F)cc2Cl)c1)C1CC1`, the cytotoxicity at 70.5 h came to 9.89%.

Take `CC(=O)Nc1ccn(Cc2ccccc2)n1`: the cytotoxicity at 70.5 h was -12.2%.

On to `COc1cccc(-c2cc(C(=O)NCCCn3nc(C)cc3C)[nH]n2)c1`, for which the cytotoxicity at 70.5 h is -1.83%.

On to `CSc1[nH]nc(NC(=O)c2ccccc2)c1C#N`, for which the cytotoxicity at 70.5 h is -10%.

As for `CSc1[nH]nc(NC(=O)c2cccnc2)c1C#N`, the cytotoxicity at 70.5 h is -5.13%.

In the case of `Cc1nn(Cn2ccc(C(=O)N3CCCC3)n2)c(C)c1Cl`, the cytotoxicity at 70.5 h is -9.33%.

Regarding `Cc1nn(Cn2ccc(C(=O)N3CCCCCC3)n2)c(C)c1Cl`, the cytotoxicity at 70.5 h was -11.3%.

For the compound `CC(Cn1cc(Br)cn1)C(=O)Nc1ccn(C)n1` (centres undefined), the cytotoxicity at 70.5 h amounted to 7.88%.

As for `CCCNC(=O)c1nn(CC)cc1NC(=O)c1c(C)nn(C)c1C`, the cytotoxicity at 70.5 h is -11.3%.

With `CCn1cc(CNC(=O)c2nn(CC)cc2Br)cn1`, the cytotoxicity at 70.5 h is 8.71%.

With `Cc1cc(C(F)(F)F)nn1CC(C)C(=O)Nc1ccccn1` (centres undefined), the cytotoxicity at 70.5 h is -12.5%.

Regarding `CCOc1ccc(NC(C)=O)cc1S(=O)(=O)Nc1nnc(C)s1`, the cytotoxicity at 70.5 h was -10.8%.

As to `CC(=O)c1cccc(S(=O)(=O)NCCNC(=O)c2snnc2C)c1`, the cytotoxicity at 70.5 h is 7.7%.

As for `COCCCNC1N=C(n2nc(C)cc2C)Nc2sc3c(c21)CCCC3` (centres undefined), the cytotoxicity at 70.5 h came to 8.46%.

For the compound `COc1ccc(OC)c(C(C)NC(=O)c2nn(C)c(C)c2Br)c1` (centres undefined), the cytotoxicity at 70.5 h came out at 27.1%.

`CCCN(C(=O)CCS(=O)(=O)Cc1ccccc1)c1cccc(C)c1`: the cytotoxicity at 70.5 h is -4.29%.

For the compound `CCn1cc(CN(C)C(=O)c2cc(C(F)(F)F)n(C)n2)cn1`, the cytotoxicity at 70.5 h is -7.42%.

Regarding `COc1cccc(-c2cc(C(=O)N3N=C(C)CC3(O)C(F)F)[nH]n2)c1` (centres undefined), the cytotoxicity at 70.5 h is -11%.

Consider `CCn1ccc(-c2nnc(SCC(=O)NCC(C)C)n2CC)n1`, for which the cytotoxicity at 70.5 h is -10.3%.

Consider `Cc1nn(CCC(=O)N(C)Cc2c(Cl)cnn2C)cc1Br`, for which the cytotoxicity at 70.5 h was -14.9%.

As to `Cn1cc(S(=O)(=O)N2CCN(S(=O)(=O)c3ccc(Br)s3)CC2)cn1`, the cytotoxicity at 70.5 h is -8.9%.

On to `Cc1nn(CCCNC(=O)C2CCN(S(C)(=O)=O)CC2)cc1Br`, for which the cytotoxicity at 70.5 h was -4.82%.

For `O=C(c1ccc(COc2ccc(Cl)cc2)o1)N1N=CCC1(O)C(F)(F)F` (centres undefined), the cytotoxicity at 70.5 h was 10.7%.

Regarding `COc1cccc(Cn2cc(N3C(=O)[C@H]4CCCC[C@H]4C3=O)cn2)c1`, the cytotoxicity at 70.5 h was found to be 26.3%.

On to `COC(=O)c1ccnn1COc1ccc(Cl)cc1`, for which the cytotoxicity at 70.5 h stood at 28.1%.

In the case of `Cc1cc(C)cc(OCn2ccc(C(=O)O)n2)c1`, the cytotoxicity at 70.5 h was -10.3%.

With `Cc1nn(C)c2nc(O)cc(C(F)(F)C(F)(F)F)c12`, the cytotoxicity at 70.5 h worked out at 0.0459%.

As for `Cn1nc(C(=O)N2CCOCC2)cc1C(=O)Nc1cc(Cl)cc(Cl)c1`, the cytotoxicity at 70.5 h was -0.911%.

`Cn1c(=O)n(C)c2nc(Cl)c(CC(=O)c3ccccc3)n2c1=O`: the cytotoxicity at 70.5 h was -4.74%.

For `CCOc1ccc(N2CCCN=C2NC(=O)c2ccc(OC)cc2)cc1`, the cytotoxicity at 70.5 h was -9.82%.

`CN1CC(Oc2ccccc2)=NC(SCC(=O)c2ccccc2)=N1`: the cytotoxicity at 70.5 h is -0.583%.

Regarding `CCC(=O)N1CCN(c2ncnc3cc4c(cc23)OCCO4)CC1`, the cytotoxicity at 70.5 h is -4.42%.

As for `Cc1nc(N2CCN(C(=O)c3ccccn3)CC2)c2c(n1)c(C)nn2C`, the cytotoxicity at 70.5 h is -8.87%.

As to `CCC(=O)N1CCN(c2nc(C)nc3c(C)nn(C)c23)CC1`, the cytotoxicity at 70.5 h was -6.94%.

With `Cc1nn(Cn2ccc(C(=O)N3CCOCC3)n2)c(C)c1Cl`, the cytotoxicity at 70.5 h is -9.86%.

Consider `COCCNc1ccc(CC2CCCN(Cc3c[nH]cn3)C2)nn1` (centres undefined), for which the cytotoxicity at 70.5 h was -0.712%.

Regarding `Cc1noc(C)c1C(=O)N1CCCC1(C)C(=O)NC1CCCC1` (centres undefined), the cytotoxicity at 70.5 h was -10.2%.

On to `Cc1ccccc1CN1CCCC1c1cncc(Nc2nncs2)n1` (centres undefined), for which the cytotoxicity at 70.5 h is -13.3%.

Turning to `COCC(=O)N1CC(c2ccnc(Nc3cc(C(F)(F)F)ccn3)n2)C1`, the cytotoxicity at 70.5 h stood at 10.3%.

As to `CNC(=O)C1(C)CN(c2nc(C)cc(C)n2)CCO1` (centres undefined), the cytotoxicity at 70.5 h stood at 1.44%.

On to `CNC(=O)c1cnn2c(C3CCCN3C)ccnc12` (centres undefined), for which the cytotoxicity at 70.5 h stood at 12.8%.

As to `CNC(=O)c1cnn2c(C3CCCN3)ccnc12` (centres undefined), the cytotoxicity at 70.5 h stood at 6.37%.

For `O=C(CCc1cccc(C2CCNCC2)n1)N1CCCCC1`, the cytotoxicity at 70.5 h is -12.2%.

With `NCC(=O)N1CCC(c2ccnc(Nc3cc(C(F)(F)F)ccn3)n2)C1` (centres undefined), the cytotoxicity at 70.5 h came out at 16.8%.

`O=C(NCc1cncc2c1CCN(Cc1ccccc1)C2)C1CC1`: the cytotoxicity at 70.5 h was found to be 9.59%.

Turning to `CS(=O)(=O)NCc1cncc2c1CCN(CC1CCOC1)C2` (centres undefined), the cytotoxicity at 70.5 h was 2.49%.

As to `Cc1cc(C(=O)N2CCC3(CC2)CC(c2cccnc2)C(=O)N3C)no1` (centres undefined), the cytotoxicity at 70.5 h came to 1.74%.

For `CCN(C)c1ncnc2c1CCN(C(=O)c1cnccn1)CC2`, the cytotoxicity at 70.5 h is -12.8%.

Turning to `Cc1ccc(CN2CC(C(=O)NCC3CC3)C3(CCOCC3)C2)s1` (centres undefined), the cytotoxicity at 70.5 h is -7.98%.

Regarding `Cc1ccc(CN2CC(C(=O)NC(C)C)C3(CCOCC3)C2)s1` (centres undefined), the cytotoxicity at 70.5 h is -11.4%.

`CC(C)N1CCC2(C=C(C(=O)N(C)C)c3ccccc32)CC1`: the cytotoxicity at 70.5 h is -16.2%.

Turning to `Cc1ncnc2c1CCN(C(=O)c1ccncc1)CC2`, the cytotoxicity at 70.5 h stood at 8.77%.

With `CCOCC1CN(S(=O)(=O)N(C)C)Cc2cnn(CC3CC3)c21` (centres undefined), the cytotoxicity at 70.5 h was determined as 2.18%.

In the case of `COc1ccc(CN2CC[C@H]3CO[C@H](CNC(=O)N(C)C)[C@H]3C2)cc1`, the cytotoxicity at 70.5 h is -7.9%.

Take `COCC(=O)N1CCC(c2nc3ccc(-c4ccncc4)cn3n2)CC1`: the cytotoxicity at 70.5 h was -6.45%.

Take `COCCN1CCC(c2nc3ccc(N4CCCC4)cn3n2)CC1`: the cytotoxicity at 70.5 h was -8.32%.

Turning to `Cn1nnc2c1C(COCc1ccccn1)CN(C(=O)c1ccsc1)C2` (centres undefined), the cytotoxicity at 70.5 h was -6.33%.

In the case of `CC(C)Nc1nc2c(cc1C(=O)NCC1CC1)CCN(C)CC2`, the cytotoxicity at 70.5 h was -8.36%.

As to `Cc1ccc(CN2CC[C@H]3CO[C@H](CN(C)Cc4ccco4)[C@H]3C2)s1`, the cytotoxicity at 70.5 h worked out at 4.82%.

As to `Cc1nnc(N2C[C@H](Oc3ccccn3)[C@H]3OCCC[C@H]32)s1`, the cytotoxicity at 70.5 h turned out to be 8.06%.

`CCN(CC)CC1CN(Cc2ccc(C)s2)Cc2nccn2C1` (centres undefined): the cytotoxicity at 70.5 h was -7.85%.

Turning to `Cc1cccc(CO[C@H]2CN(c3nnc(C)s3)[C@@H]3CCCO[C@H]23)n1`, the cytotoxicity at 70.5 h came out at 0.219%.

For `CCn1[nH]c(C)c2c(C(F)(F)F)cc(=O)nc1-2`, the cytotoxicity at 70.5 h was -4.81%.
